Measurements as given in PMC11871066, “Structure-based discovery of hydrocarbon-stapled paxillin peptides that block FAK scaffolding in cancer” (Nature Communications, 2025).

Tests used:
Assay in all cases: Eurofins KINOMEscan profiling, 97 kinases
[1] = molecular target: 97 kinases (kinase named in endpoint) (Homo sapiens, UniProt P00533, L858R); conditions: read-out: % Ctrl, EGFR(L858R)
Description: (§1) This experiment was performed by Eurofins KINOMEscan™ Profiling Service. […] The lysates were centrifuged and filtered, the remaining kinases were produced in HEK-293 cells and subsequently tagged with DNA for qPCR detection. […] The liganded beads were blocked with excess biotin and washed with blocking buffer (SeaBlock (Pierce), 1% BSA, 0.05% Tween-20, 1 mM DTT). […] Test compounds were prepared as 100x stocks in 100% DMSO and directly diluted into the assay. All reactions were performed in polypropylene 384-well plates in a final volume of 0.02 ml. […] The kinase concentration in the eluates was measured by qPCR.
(§2) (negative control signal - positive control signal)] x 100. ( b) AccompanyingSelectivity Scores or S -scores
(§3) which are quantitative measures of compound selectivity. They are calculated by dividing the number of
(§4) kinases that compounds bind to by the total number of distinct kinases tested, excluding mutant variants.
(§5) S(35)= ( num ber of non -mutant kinases with %Ctrl <35)/(number of non- mutant kinases tested)], S(10)=
(§6) non- mutant kinases with %Ctrl <1)/(number of non- mutant kinases tested)].

[2] = molecular target: 97 kinases (kinase named in endpoint) (Homo sapiens, UniProt P78368); conditions: read-out: % Ctrl, CSNK1G2
Description: as §1, §2, §3, §4, §5, §6

[3] = molecular target: 97 kinases (kinase named in endpoint) (Homo sapiens, UniProt O60674); conditions: read-out: % Ctrl, JAK2(JH1domain-catalytic)
Description: as §1, §2, §3, §4, §5, §6

[4] = molecular target: 97 kinases (kinase named in endpoint) (Homo sapiens, UniProt P16234); conditions: read-out: % Ctrl, PDGFRA
Description: as §1, §2, §3, §4, §5, §6

[5] = molecular target: 97 kinases (kinase named in endpoint) (Homo sapiens, UniProt O96013); conditions: read-out: % Ctrl, PAK4
Description: as §1, §2, §3, §4, §5, §6

[6] = molecular target: 97 kinases (kinase named in endpoint) (Homo sapiens, UniProt P22607); conditions: read-out: % Ctrl, FGFR3
Description: as §1, §2, §3, §4, §5, §6

[7] = molecular target: 97 kinases (kinase named in endpoint) (Homo sapiens, UniProt Q9BWU1); conditions: read-out: % Ctrl, CDK11
Description: as §1, §2, §3, §4, §5, §6

[8] = molecular target: 97 kinases (kinase named in endpoint) (Homo sapiens, UniProt P09619); conditions: read-out: % Ctrl, PDGFRB
Description: as §1, §2, §3, §4, §5, §6

[9] = molecular target: 97 kinases (kinase named in endpoint) (Homo sapiens, UniProt P00519, E255K); conditions: read-out: % Ctrl, ABL1(E255K)-phosphorylated
Description: as §1, §2, §3, §4, §5, §6

[10] = molecular target: 97 kinases (kinase named in endpoint) (Homo sapiens, UniProt Q9Y6R4); conditions: read-out: % Ctrl, MAP3K4
Description: as §1, §2, §3, §4, §5, §6

[11] = molecular target: 97 kinases (kinase named in endpoint) (Homo sapiens, UniProt Q02156); conditions: read-out: % Ctrl, PRKCE
Description: as §1, §2, §3, §4, §5, §6

[12] = molecular target: 97 kinases (kinase named in endpoint) (Homo sapiens, UniProt P31749); conditions: read-out: % Ctrl, AKT1
Description: as §1, §2, §3, §4, §5, §6

[13] = molecular target: 97 kinases (kinase named in endpoint) (Homo sapiens, UniProt Q00536); conditions: read-out: % Ctrl, PCTK1
Description: as §1, §2, §3, §4, §5, §6

[14] = molecular target: 97 kinases (kinase named in endpoint) (Homo sapiens, UniProt P36897); conditions: read-out: % Ctrl, TGFBR1
Description: as §1, §2, §3, §4, §5, §6

[15] = molecular target: 97 kinases (kinase named in endpoint) (Homo sapiens, UniProt P15056, V600E); conditions: read-out: % Ctrl, BRAF(V600E)
Description: as §1, §2, §3, §4, §5, §6

[16] = molecular target: 97 kinases (kinase named in endpoint) (Homo sapiens, UniProt P80192); conditions: read-out: % Ctrl, MLK1
Description: as §1, §2, §3, §4, §5, §6

[17] = molecular target: 97 kinases (kinase named in endpoint) (Homo sapiens, UniProt P53779); conditions: read-out: % Ctrl, JNK3
Description: as §1, §2, §3, §4, §5, §6

[18] = molecular target: 97 kinases (kinase named in endpoint) (Homo sapiens, UniProt P48730); conditions: read-out: % Ctrl, CSNK1D
Description: as §1, §2, §3, §4, §5, §6

[19] = molecular target: 97 kinases (kinase named in endpoint) (Homo sapiens, UniProt P06213); conditions: read-out: % Ctrl, INSR
Description: as §1, §2, §3, §4, §5, §6

[20] = molecular target: 97 kinases (kinase named in endpoint) (Homo sapiens, UniProt Q02750); conditions: read-out: % Ctrl, MEK1
Description: as §1, §2, §3, §4, §5, §6

[21] = molecular target: 97 kinases (kinase named in endpoint) (Homo sapiens, UniProt P10721, T670I/V559D); conditions: read-out: % Ctrl, KIT(V559D,T670I)
Description: as §1, §2, §3, §4, §5, §6

[22] = molecular target: 97 kinases (kinase named in endpoint) (Homo sapiens, UniProt Q9BVS4); conditions: read-out: % Ctrl, RIOK2
Description: as §1, §2, §3, §4, §5, §6

[23] = molecular target: 97 kinases (kinase named in endpoint) (Homo sapiens, UniProt P50613); conditions: read-out: % Ctrl, CDK7
Description: as §1, §2, §3, §4, §5, §6

[24] = molecular target: 97 kinases (kinase named in endpoint) (Homo sapiens, UniProt O15530); conditions: read-out: % Ctrl, PDPK1
Description: as §1, §2, §3, §4, §5, §6

[25] = molecular target: 97 kinases (kinase named in endpoint) (Homo sapiens, UniProt Q00526); conditions: read-out: % Ctrl, CDK3
Description: as §1, §2, §3, §4, §5, §6

[26] = molecular target: 97 kinases (kinase named in endpoint) (Homo sapiens, UniProt P49841); conditions: read-out: % Ctrl, GSK3B
Description: as §1, §2, §3, §4, §5, §6

[27] = molecular target: 97 kinases (kinase named in endpoint) (Homo sapiens, UniProt O14757); conditions: read-out: % Ctrl, CHEK1
Description: as §1, §2, §3, §4, §5, §6

97 kinases (kinase named in endpoint) (Homo sapiens, UniProt P00519, E255K), sequence (P00519 whole entry E255K): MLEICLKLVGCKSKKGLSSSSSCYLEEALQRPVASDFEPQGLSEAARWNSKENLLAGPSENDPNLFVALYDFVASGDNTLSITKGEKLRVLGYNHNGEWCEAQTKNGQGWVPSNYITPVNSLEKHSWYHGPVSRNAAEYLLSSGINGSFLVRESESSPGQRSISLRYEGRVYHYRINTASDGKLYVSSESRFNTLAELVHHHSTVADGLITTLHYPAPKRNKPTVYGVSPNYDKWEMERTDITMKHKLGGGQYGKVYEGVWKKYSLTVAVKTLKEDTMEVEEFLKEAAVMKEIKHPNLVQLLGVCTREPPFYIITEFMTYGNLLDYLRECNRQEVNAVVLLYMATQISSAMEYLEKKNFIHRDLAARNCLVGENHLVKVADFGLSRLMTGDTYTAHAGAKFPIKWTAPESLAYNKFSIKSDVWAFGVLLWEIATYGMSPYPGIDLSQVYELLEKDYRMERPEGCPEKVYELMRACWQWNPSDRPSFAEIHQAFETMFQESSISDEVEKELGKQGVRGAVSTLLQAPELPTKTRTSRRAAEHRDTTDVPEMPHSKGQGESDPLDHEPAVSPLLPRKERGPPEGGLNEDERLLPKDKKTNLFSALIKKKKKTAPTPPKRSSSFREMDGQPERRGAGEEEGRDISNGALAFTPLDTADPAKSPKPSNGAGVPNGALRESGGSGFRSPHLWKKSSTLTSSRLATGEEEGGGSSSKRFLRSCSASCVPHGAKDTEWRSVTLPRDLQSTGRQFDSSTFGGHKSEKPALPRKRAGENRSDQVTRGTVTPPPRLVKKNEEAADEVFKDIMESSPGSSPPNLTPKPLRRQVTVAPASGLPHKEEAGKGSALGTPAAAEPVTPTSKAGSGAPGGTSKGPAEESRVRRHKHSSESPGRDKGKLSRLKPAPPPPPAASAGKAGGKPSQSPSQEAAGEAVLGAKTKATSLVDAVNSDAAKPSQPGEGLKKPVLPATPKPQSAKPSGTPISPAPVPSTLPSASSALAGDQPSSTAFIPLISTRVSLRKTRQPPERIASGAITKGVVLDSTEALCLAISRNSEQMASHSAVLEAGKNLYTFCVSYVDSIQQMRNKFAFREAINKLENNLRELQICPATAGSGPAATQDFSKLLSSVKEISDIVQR
97 kinases (kinase named in endpoint) (Homo sapiens, UniProt P10721, T670I/V559D), sequence (P10721 26-976 V559D/T670I): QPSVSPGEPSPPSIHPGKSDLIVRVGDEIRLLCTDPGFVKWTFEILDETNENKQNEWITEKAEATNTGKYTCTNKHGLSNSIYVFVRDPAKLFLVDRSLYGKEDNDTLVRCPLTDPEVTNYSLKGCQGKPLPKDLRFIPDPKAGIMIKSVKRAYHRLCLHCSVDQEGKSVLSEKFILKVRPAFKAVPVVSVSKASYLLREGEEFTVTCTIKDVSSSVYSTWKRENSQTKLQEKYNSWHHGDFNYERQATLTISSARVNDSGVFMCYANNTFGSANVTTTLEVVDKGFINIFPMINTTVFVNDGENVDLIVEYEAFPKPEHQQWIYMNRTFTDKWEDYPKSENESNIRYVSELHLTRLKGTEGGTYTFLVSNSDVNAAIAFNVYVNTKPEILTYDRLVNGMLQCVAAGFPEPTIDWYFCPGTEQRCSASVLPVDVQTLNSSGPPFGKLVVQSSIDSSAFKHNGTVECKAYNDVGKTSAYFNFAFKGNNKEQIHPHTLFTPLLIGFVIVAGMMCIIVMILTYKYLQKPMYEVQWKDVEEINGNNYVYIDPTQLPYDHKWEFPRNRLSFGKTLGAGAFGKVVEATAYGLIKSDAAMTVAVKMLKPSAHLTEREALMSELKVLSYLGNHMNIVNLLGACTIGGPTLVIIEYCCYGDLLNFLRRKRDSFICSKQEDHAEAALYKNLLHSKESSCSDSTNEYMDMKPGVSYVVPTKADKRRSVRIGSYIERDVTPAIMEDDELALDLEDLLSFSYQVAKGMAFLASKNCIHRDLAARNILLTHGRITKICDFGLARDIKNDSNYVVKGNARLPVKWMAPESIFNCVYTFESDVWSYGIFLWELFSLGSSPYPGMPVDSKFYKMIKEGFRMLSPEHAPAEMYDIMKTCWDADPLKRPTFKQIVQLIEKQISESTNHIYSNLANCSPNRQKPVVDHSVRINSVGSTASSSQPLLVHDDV
97 kinases (kinase named in endpoint) (Homo sapiens, UniProt P80192), sequence (P80192 whole entry): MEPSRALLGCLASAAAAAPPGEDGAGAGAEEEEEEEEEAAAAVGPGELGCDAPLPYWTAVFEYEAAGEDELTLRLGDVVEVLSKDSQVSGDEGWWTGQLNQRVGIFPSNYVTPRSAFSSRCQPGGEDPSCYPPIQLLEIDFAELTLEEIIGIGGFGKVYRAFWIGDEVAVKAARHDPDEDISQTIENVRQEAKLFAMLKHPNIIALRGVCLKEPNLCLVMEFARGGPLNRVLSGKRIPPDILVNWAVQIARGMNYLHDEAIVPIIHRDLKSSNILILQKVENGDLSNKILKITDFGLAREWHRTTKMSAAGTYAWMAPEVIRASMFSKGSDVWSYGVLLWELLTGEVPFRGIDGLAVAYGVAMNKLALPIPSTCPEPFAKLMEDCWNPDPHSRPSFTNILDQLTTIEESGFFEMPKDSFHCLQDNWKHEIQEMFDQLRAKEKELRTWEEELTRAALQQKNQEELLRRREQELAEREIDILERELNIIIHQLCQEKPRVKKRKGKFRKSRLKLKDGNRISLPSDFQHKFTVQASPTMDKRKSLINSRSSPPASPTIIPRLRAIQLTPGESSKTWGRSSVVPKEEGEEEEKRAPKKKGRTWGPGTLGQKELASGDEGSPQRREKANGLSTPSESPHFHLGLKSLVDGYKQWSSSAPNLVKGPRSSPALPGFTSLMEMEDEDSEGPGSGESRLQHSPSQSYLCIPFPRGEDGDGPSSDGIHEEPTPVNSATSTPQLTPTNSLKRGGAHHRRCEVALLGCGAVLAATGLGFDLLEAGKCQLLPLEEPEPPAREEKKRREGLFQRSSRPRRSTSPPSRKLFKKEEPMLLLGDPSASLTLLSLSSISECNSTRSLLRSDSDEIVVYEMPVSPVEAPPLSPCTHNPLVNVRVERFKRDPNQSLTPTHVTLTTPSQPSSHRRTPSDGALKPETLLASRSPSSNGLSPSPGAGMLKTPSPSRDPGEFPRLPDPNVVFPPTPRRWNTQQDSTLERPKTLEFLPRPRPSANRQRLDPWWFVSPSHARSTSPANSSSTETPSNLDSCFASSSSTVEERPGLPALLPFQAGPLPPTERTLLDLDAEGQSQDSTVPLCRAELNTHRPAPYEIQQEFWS
97 kinases (kinase named in endpoint) (Homo sapiens, UniProt P22607), sequence (P22607 23-806): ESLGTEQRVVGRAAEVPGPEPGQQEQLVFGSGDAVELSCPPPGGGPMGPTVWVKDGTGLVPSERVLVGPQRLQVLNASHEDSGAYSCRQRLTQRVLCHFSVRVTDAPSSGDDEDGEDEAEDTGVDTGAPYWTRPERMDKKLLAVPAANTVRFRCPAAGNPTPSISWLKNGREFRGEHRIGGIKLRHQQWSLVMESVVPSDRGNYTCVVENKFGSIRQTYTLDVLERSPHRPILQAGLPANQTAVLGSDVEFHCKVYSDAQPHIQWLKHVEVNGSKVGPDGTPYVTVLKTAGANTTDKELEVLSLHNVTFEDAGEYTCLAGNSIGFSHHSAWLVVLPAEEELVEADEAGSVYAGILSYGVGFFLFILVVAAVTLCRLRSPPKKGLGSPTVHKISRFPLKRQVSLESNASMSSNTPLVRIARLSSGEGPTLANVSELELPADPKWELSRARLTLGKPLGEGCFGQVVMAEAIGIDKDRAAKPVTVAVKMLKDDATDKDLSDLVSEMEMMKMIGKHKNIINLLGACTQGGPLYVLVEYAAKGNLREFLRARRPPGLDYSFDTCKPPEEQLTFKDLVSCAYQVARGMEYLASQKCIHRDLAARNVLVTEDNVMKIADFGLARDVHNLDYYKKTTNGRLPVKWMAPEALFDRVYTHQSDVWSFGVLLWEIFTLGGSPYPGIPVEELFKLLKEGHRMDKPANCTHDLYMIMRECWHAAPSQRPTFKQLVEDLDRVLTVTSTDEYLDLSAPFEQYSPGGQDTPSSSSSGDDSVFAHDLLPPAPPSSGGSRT
97 kinases (kinase named in endpoint) (Homo sapiens, UniProt P15056, V600E), sequence (P15056 whole entry V600E): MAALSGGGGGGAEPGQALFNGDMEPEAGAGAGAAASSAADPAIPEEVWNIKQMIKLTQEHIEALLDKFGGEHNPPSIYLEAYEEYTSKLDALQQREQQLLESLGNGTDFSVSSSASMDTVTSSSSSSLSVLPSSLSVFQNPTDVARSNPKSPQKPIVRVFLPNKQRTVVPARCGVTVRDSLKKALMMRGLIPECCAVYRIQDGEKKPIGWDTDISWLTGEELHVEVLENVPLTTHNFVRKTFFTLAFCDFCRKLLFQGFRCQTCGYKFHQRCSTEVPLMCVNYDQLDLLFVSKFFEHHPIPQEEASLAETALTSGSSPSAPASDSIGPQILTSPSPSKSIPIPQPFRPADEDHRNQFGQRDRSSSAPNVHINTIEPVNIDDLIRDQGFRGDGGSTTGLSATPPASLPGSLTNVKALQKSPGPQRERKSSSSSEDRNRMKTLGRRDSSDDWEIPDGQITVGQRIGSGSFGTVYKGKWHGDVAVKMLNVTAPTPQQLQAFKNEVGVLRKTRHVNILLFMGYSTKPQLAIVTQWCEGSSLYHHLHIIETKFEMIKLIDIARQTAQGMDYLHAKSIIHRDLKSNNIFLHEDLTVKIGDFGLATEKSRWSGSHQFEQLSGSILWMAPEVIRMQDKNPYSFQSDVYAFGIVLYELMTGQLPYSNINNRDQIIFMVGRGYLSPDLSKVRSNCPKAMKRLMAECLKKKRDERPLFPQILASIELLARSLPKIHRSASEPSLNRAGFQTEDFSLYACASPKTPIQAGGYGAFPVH
97 kinases (kinase named in endpoint) (Homo sapiens, UniProt Q00526), sequence (Q00526 whole entry): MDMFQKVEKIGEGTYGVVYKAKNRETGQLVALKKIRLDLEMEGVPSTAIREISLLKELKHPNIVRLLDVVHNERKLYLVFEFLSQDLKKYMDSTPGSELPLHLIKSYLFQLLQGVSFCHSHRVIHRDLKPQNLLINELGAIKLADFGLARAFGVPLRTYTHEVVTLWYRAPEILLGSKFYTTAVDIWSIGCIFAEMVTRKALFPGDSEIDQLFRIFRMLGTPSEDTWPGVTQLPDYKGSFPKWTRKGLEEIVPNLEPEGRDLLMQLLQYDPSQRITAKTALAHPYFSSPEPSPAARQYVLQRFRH

SMILES | remaining binding at 1 µM [1] | remaining binding at 1 µM [2] | remaining binding at 1 µM [3] | remaining binding at 1 µM [4] | remaining binding at 1 µM [5] | remaining binding at 1 µM [6] | remaining binding at 1 µM [7] | remaining binding at 1 µM [8] | remaining binding at 1 µM [9] | remaining binding at 1 µM [10] | remaining binding at 1 µM [11] | remaining binding at 1 µM [12] | remaining binding at 1 µM [13] | remaining binding at 1 µM [14] | remaining binding at 1 µM [15] | remaining binding at 1 µM [16] | remaining binding at 1 µM [17] | remaining binding at 1 µM [18] | remaining binding at 1 µM [19] | remaining binding at 1 µM [20] | further results
CCCCCCCCCCCCCC(=O)N[C@@H](CC(N)=O)C(=O)N[C@@H](CC(C)C)C(=O)N[C@]1(C)CCCCCCC=CCCC[C@@](C)(C(=O)N[C@@H](CCC(=O)O)C(=O)N[C@@H](CC(C)C)C(=O)N[C@@H](CC(N)=O)C(N)=O)NC(=O)[C@H](CC(C)C)NC(=O)[C@H](CC(C)C)NC(=O)[C@H](CCCNC(=N)N)NC(=O)[C@H](CC(=O)O)NC(=O)[C@H](CC(C)C)NC(=O)[C@H](CCC(=O)O)NC1=O [compound 2012] | 99% | 99% | 87% | 100% | 100% | 95% | 87% | 94% | 70% | 90% | 53% | 100% | 100% | 93% | 100% | 100% | 100% | 97% | 100% | 94% | remaining binding at 1 µM [21]: 93%; remaining binding at 1 µM [22]: 91%; remaining binding at 1 µM [23]: 69%; remaining binding at 1 µM [24]: 99%; remaining binding at 1 µM [25]: 89%; remaining binding at 1 µM [26]: 100%; remaining binding at 1 µM [27]: 98%
CNC(=O)c1ccc(Nc2ncc(C(F)(F)F)c(NCc3nccnc3N(C)S(C)(=O)=O)n2)cc1 [defactinib] | 81% | 39% | 0.1% | 82% | 7.4% | 45% | 97% | 18% | 82% | 69% | 42% | 100% | 48% | 91% | 100% | 6.7% | 90% | 93% | 61% | 83% | remaining binding at 1 µM [21]: 37%; remaining binding at 1 µM [22]: 50%; remaining binding at 1 µM [23]: 22%; remaining binding at 1 µM [24]: 50%; remaining binding at 1 µM [25]: 62%; remaining binding at 1 µM [26]: 75%; remaining binding at 1 µM [27]: 99%
